# From patent US20260159474A1, “Aminoindane Compounds and Compositions and Methods of Their Therapeutic Use” (Solvonis Therapeutics Ireland Holdings Limited, priority 2021, published 2026)
# Experiments:
# [1] = system: extracellular noradrenaline (NE) in the nucleus accumbens (NAcc); experiment: In vivo microdialysis in rat nucleus accumbens, norepinephrine; parameters: species or system Sprague Dawley rats; details: 7 mg/kg I.P.; for time of peak NE level / peak NE level: rat NAcc microdialysis; for peak NE level: baseline = 100%; for Norepinephrine (NE) level (% from baseline): rat NAcc
# Protocol: Methods and Procedure: This study was conducted in compliance with previously described procedures to assure data integrity, adherence to GLP regulations, and standard preclinical study and surgery procedures. The in vivo microdialysis technique was applied to measure the over-time variations of DA, 5-HT, and NE extracellular (EC) concentrations in conscious, freely-moving Sprague Dawley rats. Levels of the neurotransmitters in microdialysis samples were determined using LC-MS/MS analysis. The experiment was also conducted with MDMA for comparative purposes.
# As it relates to cannula implantation, the rats were anesthetized with isoflurane 4% in oxygen (2-2.5 L/min), then the isoflurane concentration 2-2.5% was maintained via a nose cone adapted to the stereotaxic apparatus. The rats were treated with meloxicam (0.2 mg/kg, subcutaneously, sc; Meloxidolor) and amoxicilline (150 mg/kg, sc, Betamox LA). The skull was then shaved and disinfected. Rats were then placed in a stereotaxic apparatus for small animals. One vertical guide cannula was inserted through a 1 mm hole drilled on the exposed skull. Coordinates, with respect to the bregma to target specific brain areas, followed indications from stereotaxic atlas of the rat brain. Specifically a guide cannula (MAB 4.12.IC, Agn Tho's AB, Lidinga, Sweden) was inserted in the NAcc (anteroposterior+1.6; lateral −1.6; dorsoventral −6.0). The guide cannula was then secured with dental cement and 2-4 screws. At the end of the surgery the animal was isolated in a single cage during recovery, for a period of at least one week, during which animal health conditions were checked twice daily and the weight recorded twice a week. Animals continued to be housed singly throughout the experiment. One day before the experiment the cannula stylet was removed and a microdialysis probe with a dialyzing length of 2 mm (MAB 4.12.2 Cu, Agn Tho's AB, Lidingo, Sweden) was inserted. Probes can be re-used 2 times for 2 experimental sessions after appropriate cleaning with fresh milliQ water.
# Post-surgery, the rats were maintained in a heating chamber prior to waking up in order to avoid hypothermia that could be caused by anaesthesia. 5 mL of physiologic solution was subcutaneously administered immediately after surgery, and once/day for 2-3 days, if signs of dehydration are noticed. Meloxicam (Meloxidolor) 0.2 mg/kg was again administered subcutaneously the day after surgery as well as after 48 h after surgery together with Amoxicilline Long Acting (Betamox LA) 150 mg/kg. Health status and body weight was checked every day during the first week.
# The animals were treated with the therapeutic compounds, and MDMA, or their vehicle (saline) according to a Latin square design over 5 separate experimental days (one day/week). The treatments were administered in a volume of 1 mL/kg intraperitoneally.
# On the day of the experiment, each animal was taken into the laboratory in its home cage. Inlet tubing of the probe was attached to a dual quartz-lined two channel liquid swivel mounted on a low mass spring counterbalance arm which, in turn, was connected to a gas-tight syringe on a microinfusion pump. […] An equilibration period of about two hours of perfusion was allowed before collecting samples. Following the equilibration period, 4 basal samples were collected for each experimental animal followed by further 10 post-treatment samples. Samples were collected every 20 minutes (up to 3 hours and 20 minutes post-treatment) by means of a refrigerated auto-sampler (Univentor 820 Microsampler, AgnTho's, Sweden) maintained at +8 “C. At the end of all experimental sessions, 2 μL of 0.1% methylene blue solution was injected through the microdialysis probe, animals were euthanized, and their brains removed to confirm the correct probe-position.
# As mentioned, the concentration of DA, 5-HT and NE in CSF samples were determined using an optimized method based on LC-MS/MS analysis. […]
# [2] = molecular target: T1, human 5-HT2A receptor (Homo sapiens, UniProt P28223); experiment: Intracellular calcium response (FLIPR) in CHO cells expressing human 5-HT2A receptor; type: cell-based; details: n=2; for 5-HT2A agonist mode pEC50: intracellular calcium; for 5-HT2A antagonist mode pIC50: inhibition of serotonin EC80 response
# T1 construct: expressed in transfected cells; host or cells: CHO
# T1 sequence (P28223 whole entry): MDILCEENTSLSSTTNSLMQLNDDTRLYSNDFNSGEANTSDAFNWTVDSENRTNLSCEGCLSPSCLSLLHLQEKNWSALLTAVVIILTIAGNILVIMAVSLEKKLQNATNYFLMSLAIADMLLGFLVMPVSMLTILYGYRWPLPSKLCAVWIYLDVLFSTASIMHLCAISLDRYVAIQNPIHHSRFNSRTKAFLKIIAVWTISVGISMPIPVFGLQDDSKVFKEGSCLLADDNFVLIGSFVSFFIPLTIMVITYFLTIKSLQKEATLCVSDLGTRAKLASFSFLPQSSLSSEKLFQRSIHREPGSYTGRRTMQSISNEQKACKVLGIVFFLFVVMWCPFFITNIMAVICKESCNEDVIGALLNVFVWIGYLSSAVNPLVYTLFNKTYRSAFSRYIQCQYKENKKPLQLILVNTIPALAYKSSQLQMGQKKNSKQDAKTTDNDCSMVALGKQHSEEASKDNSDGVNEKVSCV
# Protocol: Methods: Selectivity for the 5-HT2A receptor was assessed by measuring [ICa2+]i in a CHO recombinant cell line stably expressing the human 5-HT2A receptor, using a Fluorometric Imaging Plate Reader (FLIPR TETRA, Molecular Devices).
# The day before the experiment, CHO cells were seeded into black-wells clear-bottom 384-well plates at a density of 10,000 cells per well, in F-12K Medium (ThermoFisher #21127) supplemented with 10% dialyzed fetal bovine serum, and grown overnight at 37° C., 5% C02.
# On the day of the experiment, the medium was replaced with assay buffer (20 miM HEPES, 145 mM NaCl, 5 mM KCl, 5.5 mM glucose, 1 mM MgCl2, 2 mM CaCl2 and 2.5 mM probenecid, pH 7.4) containing the cytoplasmic Ca2+ indicator Fluo-4 AM at 2 μM and 0.02% Pluronic F-127. After an incubation of 45-60 minutes at 37° C., 0% C02, cells were washed by Microplate Washer (BIOTEK) 384 with assay buffer, and the plate was transferred to the FLIPR TETRA. Then, intracellular fluorescence was measured in real time by FLIPR TETRA (excitation wavelength at 470-495 nm, emission wavelength at 515-575 nm), using a dual addition protocol.
# In the first addition, test compounds (11 points of 1:4 serial dilution, 0.5% DMSO final) were added to the cell plate to evaluate their effect on intracellular calcium levels. In the event of a response, the signal was elaborated for the determination of pEC50/EC50 values.
# [3] = Solubility in PBS (pH 7.4), HPLC-UV; type: physicochemical; details: for Characterization (solubility class): PBS pH 7.4; for solubility at 120 min: PBS pH 7.4, room temperature, 2% DMSO
# Protocol: Stock solutions of therapeutic compounds (20 mM) were prepared in DMSO, on the same day of the experiment when feasible. These solutions were compared with an external standard solution of known concentration via HPLC-UV. To prepare the standard, 4 μL from a 20 mM compound stock solution was added to DMSO in a vial/well, and mixed with shaking at room temperature for 10 minutes. The standard buffer used for the assessment was PBS buffer (pH 7.4), but alternative buffers may also be used, such as biologically relevant Fluids, including Simulated Gastric fluid (SGF) at pH 1.2, Fasted State Simulated Intestinal Fluid (FaSSIF) at pH 6.5, and Fed State Simulated Intestinal Fluid (FeSSIF) at pH 5.0.
# An isotonic phosphate buffer (iPBS) was prepared by dissolving a phosphate buffered saline tab (Sigma-Aldrich P4417-50Tab) in 200 mL of deionized water, the final composition of the solution being 10 mM PBS, 2.7 mM kCl, and 137 mM NaCl, yielding a final pH of 7.4 at 25° C. Samples were prepared by dispensing 8 μL from a 20 mM compound stock solution in DMSO in a vial/well in duplicate, adding 392 μL of buffer in each vial/well, and mixed by shaking at room temperature for 120 minutes. The final compound concentration was approximately 400 μM, while the final concentration of DMSO was about 2%. The solutions were then filtered prior to analysis.
# Concentrations were determined by comparing UV absorbance of the test solution and of the known standard solution following HPLC separation using a generic fast gradient method employing a DAD detector and UV detection at 230 and 254 nm. Concerning the HPLC Mobile phase, Phase A was a 50 mM ammonium acetate aqueous solution (pH adjusted to 7.4 with ammonia), and Phase B was acetonitrile. For data analysis, chromatographic peaks were automatically integrated, and the parameters were optimized to enable consistent integration of all chromatograms in the entire analytical run. The solubility of each compound was expressed as the ratio of compound amount in the sample test solution to the amount of compound in the standard solution, calculated from the equation “solubility of sample=peak area of sample/peak area of standard×concentration of standard.”
# [4] = PBS buffer, aqueous buffer, kinetic from dmso stock
SMILES,time of peak NE level [1] [min],peak NE level [1] [%],Norepinephrine (NE) level (% from baseline) ([1]; 0 min (basal sample)) [%],Norepinephrine (NE) level (% from baseline) ([1]; 20 min post-admin) [%],Norepinephrine (NE) level (% from baseline) ([1]; 40 min post-admin) [%],Norepinephrine (NE) level (% from baseline) ([1]; 60 min post-admin) [%],Norepinephrine (NE) level (% from baseline) ([1]; 80 min post-admin) [%],Norepinephrine (NE) level (% from baseline) ([1]; 100 min post-admin) [%],Norepinephrine (NE) level (% from baseline) ([1]; 120 min post-admin) [%],Norepinephrine (NE) level (% from baseline) ([1]; 140 min post-admin) [%],Norepinephrine (NE) level (% from baseline) ([1]; 160 min post-admin) [%],Norepinephrine (NE) level (% from baseline) ([1]; 180 min post-admin) [%],Norepinephrine (NE) level (% from baseline) ([1]; 200 min post-admin) [%],Norepinephrine (NE) level (% from baseline) ([1]; −20 min (basal sample)) [%],5-HT2A agonist mode pEC50 [2],5-HT2A antagonist mode pIC50 [2],Characterization (solubility class) [3],solubility at 120 min [3] [µM],"solubility at 120 min [3, 4] [µM]"
CNC(C)Cc1ccc2c(c1)OCO2 (stereo not drawn) [MDMA],40,473,100,113,473,457,375,348,350,320,295,275,255,100,less than 4.3,less than 4.3,High solubility,386,–
"COC(=O)c1ccc2c(c1)CC(N)C2 (stereo not drawn) [CMP-405, 2-aminoindane-5-methylcarboxylate]",60,188,101,106,167,188,147,136,125,107,122,105,106,99,comparable to MDMA,comparable to MDMA,High solubility,–,392
"COc1ccc2c(c1)CC(N)C2 (stereo not drawn) [MEAI, 5-methoxy-2-aminoindane]",40,366,97,132,366,295,208,194,187,167,140,149,133,103,comparable to MDMA,comparable to MDMA,High solubility,–,374
